For orientation: GI50 means the concentration that inhibits growth by half. One may read the IC50 as the concentration that gives 50% inhibition.

These results are taken from ChEMBL document CHEMBL4610053, “Synthesis and biological evaluation of 2-quinolineacrylamides” (Bioorg Med Chem, 2020).

For one assay, the system named is A549. Nature of the assay: Antiproliferative activity against human A549 cells assessed as reduction in cell viability incubated for 48 hrs by Sulforhodamine B assay. Type of assay: functional. To be noted: A549, 48 h. For orientation: In SRB staining, fixed cells bind dye roughly in proportion to their protein.
Another assay concerns HCT-116. Nature of the assay: Antiproliferative activity against human HCT116 cells assessed as reduction in cell viability incubated for 48 hrs by Sulforhodamine B assay. Type of assay: functional. To be noted: HCT-116, 48 h.
For assay [1], the species on record is Homo sapiens. The assay can be described thus: Selectivity ratio of IC50 for recombinant human C-terminal GST-tagged HDAC2 (1 to 488 residues) expressed in insect cells to IC50 of human HDAC6.
The target of assay [2] is T1, Protein deacetylase HDAC6 (Homo sapiens, UniProt Q9UBN7).
T1 sequence (Q9UBN7 whole entry): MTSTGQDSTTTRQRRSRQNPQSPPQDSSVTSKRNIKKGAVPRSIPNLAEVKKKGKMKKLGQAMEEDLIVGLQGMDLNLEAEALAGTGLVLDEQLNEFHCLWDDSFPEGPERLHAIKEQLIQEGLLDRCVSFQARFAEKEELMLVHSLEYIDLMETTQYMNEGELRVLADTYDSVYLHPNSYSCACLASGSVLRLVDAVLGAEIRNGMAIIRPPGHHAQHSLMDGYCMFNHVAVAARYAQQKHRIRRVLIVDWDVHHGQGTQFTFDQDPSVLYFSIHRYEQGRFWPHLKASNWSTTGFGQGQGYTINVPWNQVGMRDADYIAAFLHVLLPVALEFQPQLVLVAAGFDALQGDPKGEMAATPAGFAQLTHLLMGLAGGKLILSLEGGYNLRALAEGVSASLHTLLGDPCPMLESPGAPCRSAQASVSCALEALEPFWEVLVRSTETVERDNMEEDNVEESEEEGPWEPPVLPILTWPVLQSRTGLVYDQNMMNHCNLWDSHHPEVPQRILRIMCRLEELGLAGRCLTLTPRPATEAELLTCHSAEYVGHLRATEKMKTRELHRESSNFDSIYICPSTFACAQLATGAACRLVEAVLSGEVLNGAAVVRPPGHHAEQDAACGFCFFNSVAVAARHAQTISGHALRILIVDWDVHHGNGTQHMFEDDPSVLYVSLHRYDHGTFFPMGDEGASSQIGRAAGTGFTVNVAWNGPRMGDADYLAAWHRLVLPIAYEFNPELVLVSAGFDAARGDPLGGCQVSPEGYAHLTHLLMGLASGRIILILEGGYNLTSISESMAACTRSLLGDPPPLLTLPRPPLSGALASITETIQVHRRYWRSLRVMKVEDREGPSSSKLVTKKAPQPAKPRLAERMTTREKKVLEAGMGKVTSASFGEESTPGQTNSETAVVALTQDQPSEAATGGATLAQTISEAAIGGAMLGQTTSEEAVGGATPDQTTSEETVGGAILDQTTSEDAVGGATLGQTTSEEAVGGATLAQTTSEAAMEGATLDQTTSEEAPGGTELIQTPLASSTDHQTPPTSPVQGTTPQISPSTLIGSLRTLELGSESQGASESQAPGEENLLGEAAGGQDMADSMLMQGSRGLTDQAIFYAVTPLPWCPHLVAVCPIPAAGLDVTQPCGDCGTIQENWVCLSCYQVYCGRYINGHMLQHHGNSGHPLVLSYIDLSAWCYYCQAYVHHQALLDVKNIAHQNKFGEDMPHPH
Nature of the assay: Inhibition of human HDAC6 using fluorogenic-(RHKKAc) as substrate by fluorescence assay.

The target of assay [3] is T2, Protein deacetylase HDAC6 (Homo sapiens) (UniProt Q9UBN7).
T2 sequence (whole entry): T1 sequence (Q9UBN7 whole entry)
The assay can be described thus: Inhibition of HDAC6 in human HCT116 cells assessed as increase in tubulin acetylation measured after 48 hrs by Western blot analysis. The note with it: HCT-116. The assay is classed as cell-based. (Immunoblotting shows a protein as a band on a membrane.)

A further assay has as its target Histone deacetylase 2 (Homo sapiens, UniProt Q92769). Nature of the assay: Inhibition of recombinant human C-terminal GST-tagged HDAC2 (1 to 488 residues) expressed in insect cells using RHK-K(Ac)-AMC as substrate measured after 60 mins by fluorescence assay.
The target in assay [4] is Class 1 histone deacetylase (Homo sapiens) (UniProt Q13547+O15379+Q92769+Q9BY41). The assay can be described thus: Inhibition of class 1 HDAC in human HCT116 cells assessed as increase in H3 acetylation measured after 48 hrs by Western blot analysis. The assay is classed as cell-based. The note with it: HCT-116.
The target of a further assay is T3, Histone deacetylase 8 (Homo sapiens, UniProt Q9BY41).
T3 sequence (Q9BY41 whole entry): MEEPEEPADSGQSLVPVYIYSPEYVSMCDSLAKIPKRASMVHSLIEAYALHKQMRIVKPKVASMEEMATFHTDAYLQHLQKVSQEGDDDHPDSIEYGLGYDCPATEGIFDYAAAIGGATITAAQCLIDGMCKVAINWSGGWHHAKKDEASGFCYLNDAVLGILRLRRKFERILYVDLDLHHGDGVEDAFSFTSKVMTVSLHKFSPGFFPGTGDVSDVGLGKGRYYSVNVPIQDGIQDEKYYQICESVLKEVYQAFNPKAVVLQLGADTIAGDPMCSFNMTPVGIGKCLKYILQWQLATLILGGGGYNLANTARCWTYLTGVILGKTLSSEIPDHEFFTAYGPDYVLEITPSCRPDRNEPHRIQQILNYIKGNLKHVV
Nature of the assay: Inhibition of recombinant human C-terminal His-tagged HDAC8 (1 to 377 residues) expressed in insect cells using RHK-K(Ac)-AMC as substrate measured after 60 mins by fluorescence assay.

The next assay concerns the target Histone deacetylase 1 (Homo sapiens, UniProt Q13547). The assay can be described thus: Inhibition of recombinant human C-terminal FLAG/His-tagged HDAC1 (1 to 482 residues) expressed in Sf21 insect cells by using RHK-K(Ac)-AMC as substrate measured after 60 mins by fluorescence assay.
The species entered for assay [5] is Homo sapiens. The assay can be described thus: Selectivity ratio of IC50 for recombinant human C-terminal His-tagged HDAC8 (1 to 377 residues) expressed in insect cells to IC50 of human HDAC6.
Assay [6] is filed under the species Homo sapiens. Nature of the assay: Selectivity ratio of IC50 for recombinant human C-terminal FLAG/His-tagged HDAC1 (1 to 482 residues) expressed in Sf21 insect cells to IC50 of human HDAC6.

Histone deacetylase 1, sequence (Q13547 whole entry, the tested form may be a part): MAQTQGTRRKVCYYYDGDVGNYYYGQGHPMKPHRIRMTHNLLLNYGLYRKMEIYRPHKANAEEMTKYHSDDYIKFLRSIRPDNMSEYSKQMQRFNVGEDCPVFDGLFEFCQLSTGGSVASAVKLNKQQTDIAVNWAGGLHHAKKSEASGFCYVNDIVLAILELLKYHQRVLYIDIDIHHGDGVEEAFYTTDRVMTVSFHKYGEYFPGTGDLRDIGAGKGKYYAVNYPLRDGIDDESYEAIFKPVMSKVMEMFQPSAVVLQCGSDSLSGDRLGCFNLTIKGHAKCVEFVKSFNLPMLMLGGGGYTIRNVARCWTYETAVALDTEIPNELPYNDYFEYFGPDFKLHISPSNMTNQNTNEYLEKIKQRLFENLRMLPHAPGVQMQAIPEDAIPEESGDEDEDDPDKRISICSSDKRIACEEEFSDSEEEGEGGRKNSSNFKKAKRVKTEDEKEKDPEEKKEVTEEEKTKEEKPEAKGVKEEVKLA
Histone deacetylase 2, sequence (Q92769 whole entry, the tested form may be a part): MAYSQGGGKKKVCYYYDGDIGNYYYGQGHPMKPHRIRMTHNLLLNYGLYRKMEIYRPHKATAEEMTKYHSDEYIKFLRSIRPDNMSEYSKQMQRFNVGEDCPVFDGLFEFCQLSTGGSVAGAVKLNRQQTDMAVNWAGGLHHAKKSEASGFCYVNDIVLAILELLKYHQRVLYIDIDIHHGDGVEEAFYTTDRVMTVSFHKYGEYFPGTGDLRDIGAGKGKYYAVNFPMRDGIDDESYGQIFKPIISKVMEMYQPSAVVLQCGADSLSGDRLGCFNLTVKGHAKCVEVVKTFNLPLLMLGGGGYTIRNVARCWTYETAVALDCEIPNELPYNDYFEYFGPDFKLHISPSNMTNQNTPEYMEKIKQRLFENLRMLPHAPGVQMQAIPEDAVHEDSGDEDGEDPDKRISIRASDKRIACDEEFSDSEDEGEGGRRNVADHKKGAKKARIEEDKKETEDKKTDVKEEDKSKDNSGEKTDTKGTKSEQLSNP

For the molecule `CC(C)c1ccc(Oc2ccc3nc(/C=C/C(=O)NO)ccc3c2)cc1`, the GI50 with A549 stood at 3280 nM; with HCT-116 it was 4080 nM.

With `O=C(/C=C/c1ccc2cc(C(=O)c3ccc(F)cc3)ccc2n1)NO`, the GI50 turned out to be 1260 nM in the assay on A549 and 1840 nM with HCT-116.

Regarding `COc1ccc(-c2ccc3nc(/C=C/C(=O)NO)ccc3c2)cc1`, the figures for the Ratio IC50 in the assay filed under Homo sapiens [1] and in the assay filed under Homo sapiens [5] were 27 and 97, respectively. In addition, the IC50 in [2] was 49 nM; on Histone deacetylase 2 (read-out: IC50), 1310 nM; at Histone deacetylase 8, 4770 nM; on Histone deacetylase 1 (sf21), “Not Active”. The results for the GI50 with A549 and in the assay with HCT-116 were 2350 nM and 1470 nM, respectively. Besides, the inhibition entry in [3] and in assay [4] was “Dose-dependent effect” each time.

`COc1cccc(Oc2ccc3nc(/C=C/C(=O)NO)ccc3c2)c1`: the GI50 in the assay on A549 was 4350 nM; in the assay on HCT-116 it was 2740 nM.

As for `Cc1ccc(C(=O)c2ccc3nc(/C=C/C(=O)NO)ccc3c2)cc1`, the GI50 in the assay on A549 was 2580 nM; in the assay with HCT-116, 2510 nM.

`O=C(CCCCCCC(=O)Nc1ccccc1)NO` [VORINOSTAT]: the GI50 in the assay with A549 came out at 2620 nM; with HCT-116, 440 nM.

Take `O=C(/C=C/c1ccc2cc(Oc3ccc([N+](=O)[O-])cc3)ccc2n1)NO`: the IC50 in assay [2] was 51.4 nM; at Histone deacetylase 2, “Not Active”; at Histone deacetylase 8 it was 2320 nM; on Histone deacetylase 1 (read-out: IC50) it was 6050 nM. The GI50 in the assay with A549 was determined as 1630 nM; in the assay on HCT-116, 1000 nM. The inhibition result in assay [3] and in [4] was “Dose-dependent effect” each time. Also, the values for the Ratio IC50 in the assay filed under Homo sapiens [6] and in the assay filed under Homo sapiens [5] were 118 and 45, respectively.

Consider `COc1ccc(C(=O)c2ccc3nc(/C=C/C(=O)NO)ccc3c2)cc1OC`, for which the GI50 in the assay on A549 worked out at 3310 nM; in the assay with HCT-116, 1780 nM.

As for `CN1CCc2c(c3ccccc3n2Cc2ccc(C(=O)NO)cc2)C1` [TUBASTATIN A], the GI50 in the assay on A549 and in the assay with HCT-116 was over 5000 nM in each case.

As for `O=C(/C=C/c1ccc2cc(-c3ccoc3)ccc2n1)NO`, the GI50 in the assay with A549 worked out at 1920 nM; in the assay on HCT-116 it was 1560 nM.

In the case of `COc1ccc(C(=O)c2ccc3nc(/C=C/C(=O)NO)ccc3c2)cc1`, the GI50 in the assay on A549 came out at 1890 nM; in the assay on HCT-116, 2300 nM.

As for `COc1cc(Oc2ccc3nc(/C=C/C(=O)NO)ccc3c2)cc(OC)c1OC`, the Ratio IC50 in the assay filed under Homo sapiens [1] was 0.7; in the assay filed under Homo sapiens [6], 67; in the assay listed under Homo sapiens [5], 106. Moreover, the IC50 in assay [2] was 26.5 nM; on Histone deacetylase 2 (read-out: IC50), 18.7 nM; on Histone deacetylase 8, 2820 nM; on Histone deacetylase 1 (read-out: IC50), 1770 nM. In addition, the GI50 in the assay with A549 worked out at 2430 nM; with HCT-116, 740 nM. Further, the inhibition entry in assay [3] and in assay [4] was “Dose-dependent effect” throughout.

Take `COc1ccc(S(=O)(=O)Nc2ccc3nc(/C=C/C(=O)NO)ccc3c2)cc1`: the GI50 with A549 came out at 4310 nM; in the assay on HCT-116 it was 6680 nM.

Take `COc1cc(C(=O)c2ccc3nc(/C=C/C(=O)NO)ccc3c2)cc(OC)c1OC`: the GI50 in the assay on A549 stood at 3350 nM; in the assay on HCT-116, 2620 nM.

For the molecule `COc1ccc(Oc2ccc3nc(/C=C/C(=O)NO)ccc3c2)cc1`, the half-inhibitory concentration (IC50) is 20.7 nM in [2], “Not Active” at Histone deacetylase 2, 7750 nM at Histone deacetylase 8 and over 10000 nM at Histone deacetylase 1 (read-out: IC50). In addition, the GI50 was found to be 3200 nM in the assay on A549 and 1820 nM in the assay on HCT-116. Besides, the inhibition result in assay [3] and in assay [4] was “Dose-dependent effect” each time. Also, the results for the Ratio IC50 in the assay listed under Homo sapiens [6] and in the assay listed under Homo sapiens [5] were over 483 and 374, respectively.
